# Test results as given in patent publication US20120270900A1, “NOVEL METHOD OF TREATMENT” (Topo Target A/S, priority 2009, published 2012).
# pIC50: −log10 of the molar value.
# Legend:
# [1] = tested on: panel of cell lines of different origin; assay: Clonogenic assay, continuous APO866 treatment, panel of cell lines; type: cell-based
# Method: (§1) Clonogenic assay: Cells were incubated with APO866 at different concentrations with or without 100 μM nicotinic acid and seeded out on semi-solid agar matrix with sheep red blood cells and growth medium. Following a 3-week incubation period, the colonies were counted and % survival relative to control (untreated) cells was calculated. IC50 values were calculated on basis of survival at different concentrations of APO866.
# Supplement of nicotinic acid to the growth medium can protect against the cytotoxic effects of inhibitors of nicotinamide phosphoribosyltransferase (NAMPRT), including APO866, by synthesizing nicotine adenine dinucleotide (NAD) by an alternative pathway. A cancer cell line, HEPG2, has been shown not to be able to utilize nicotinic acid for NAD synthesis (Cancer Res. 2003 Nov. 1; 63(21):7436-42). We investigated the protective effect of nicotinic acid against APO866 induced cell death in a panel of cell lines of different origin. […] We used continuous treatment with APO866 in a clonogenic assay. Two cell lines, A2780 and NYH were not protected against APO866 when incubated in a medium containing 100 μM nicotinic acid (Table 1). ML-2, HCT-116 and A431 cells display an increase of IC50 values of more than 40-90 fold in nicotinic acid containing medium compared to standard medium. […]
# [2] = Survival of mice under high dose APO866 with or without oral nicotinic acid; type: in vivo
# Method: FIG. 2 illustrates the cumulative survival of mice in response to high dose APO866 treatment. Treatment is 60 mg APO866 twice/day for 4 days. NA=nicotinic acid.
# [3] = APO866 40 mg/kg i.p. x2/day for 4 days, nicotinic acid 20 mg/kg x1/day p.o. for five days; last treatment day
# [4] = tested on: small cell lung cancer cell line NYH; assay: CellTiterGlo luminescent cell viability assay; type: cell-based; details: 3 days treatment, 1 mM nicotinic acid
# Method: FIG. 9 illustrates cell viability in the small cell lung cancer cell line NYH measured by CellTiterGlo® after 3 days of compound 1050 treatment with and without 1 mM nicotinic acid added to the medium.
# (§2) CellTiterGlo® luminescent cell viability assay: Cells were plated in opaque 96-well plates (5,000 cells/well) 24 hours before use and then incubated with drug for 72 hours at the indicated concentrations with or without nicotinic acid (Invitrogen) added to the media. The CellTiterGlo® assay (Promega) was performed according to the manufacturer's instructions and bioluminescence was measured. Analysis and determination of IC50 values were performed by Prizm.
# [5] = tested on: colon cancer cell line HCT116; assay: CellTiterGlo luminescent cell viability assay; type: cell-based; details: 3 days treatment, varying concentrations of nicotinic acid
# Method: FIG. 8 illustrates cell viability in the colon cancer cell line HCT116 measured by CellTiterGlo® after 3 days of compound 1050 treatment with and without varying concentrations of nicotinic acid added to the medium.
# as §2
# myeloma = details: unless nicotinic acid is given 24 hours after the NAMPRTi; Beauparlant et al.; cited from earlier work
# [6] = tested on: ovarian cancer cell line A2780; assay: CellTiterGlo luminescent cell viability assay; type: cell-based; details: 3 days treatment, 1 mM nicotinic acid
# Method: FIG. 7 illustrates cell viability in the ovarian cancer cell line A2780 measured by CellTiterGlo® after 3 days of CHS-828 treatment with and without 1 mM nicotinic acid added to the medium.
# as §2
# A2780 xenografts = assay: Subcutaneous A2780 xenograft study
# Method: (§3) FIG. 4 illustrates the cumulative survival of mice with subcutaneous A2780 xenografts: Time used for each individual mouse's tumour to reach a size of 800 mm3. The mice were treated i.p. with doses of 15 or 50 mg/kg APO866×2/day in two weekly 4-day cycles combined with vehicle p.o. or 50 mg/kg nicotinic acid (NA). Legend on the figure: The p-values of log-rank analysis comparing the individual groups are shown on the figure.
# (§4) Mouse studies: In toxicity and xenograft studies NMRI mice and nude mice, respectively, were treated once daily p.o. with 0.5% HPMC in water or nicotinic acid in the same vehicle combined with two daily injections of APO866 in PBS/saline with 3% HPβCD. The mice were treated in two weekly four-day cycles.
# (§5) In xenograft studies, 10^7 cancer cells were injected s.c. in a mixture of PBS/matrigel in nude athymic mice.
# (§6) We investigated the in vivo rescue effects of nicotinic acid on nude mice carrying xenograft tumours of A2780 and ML-2 cells. APO866 was given twice daily in weekly four-day cycles for two weeks starting when tumours had reached a size of 100 mm^3.
# ML-2 xenografts = assay: Subcutaneous ML-2 xenograft study
# Method: as §3, with “FIG. 5” for “FIG. 4”, “subcutaneous ML-2” for “subcutaneous A2780”
# as §4, §5, §6
# A2780 = assay: Clonogenic assay, APO866 with or without 100 μM nicotinic acid; type: cell-based
# Method: as §1
# (§7) Supplement of nicotinic acid to the growth medium can protect against the cytotoxic effects of inhibitors of nicotinamide phosphoribosyltransferase (NAMPRT), including APO866, by synthesizing nicotine adenine dinucleotide (NAD) by an alternative pathway. A cancer cell line, HEPG2, has been shown not to be able to utilize nicotinic acid for NAD synthesis (Cancer Res. 2003 Nov. 1; 63(21):7436-42). We investigated the protective effect of nicotinic acid against APO866 induced cell death in a panel of cell lines of different origin. […] We used continuous treatment with APO866 in a clonogenic assay. Two cell lines, A2780 and NYH were not protected against APO866 when incubated in a medium containing 100 μM nicotinic acid (Table 1). ML-2, HCT-116 and A431 cells display an increase of IC50 values of more than 40-90 fold in nicotinic acid containing medium compared to standard medium. Addition of 100 μM nicotinic acid to the medium had in itself no effect on the survival of the cells (data not shown)
# HCT-116 = assay: as above; type: cell-based
# Method: as §1, §7
# ML-2 = assay: as above; type: cell-based
# Method: as §1, §7
# A431 = assay: as above; type: cell-based
# Method: as §1, §7
# NYH = assay: as above; type: cell-based
# Method: as §1, §7
# leukemic cells = details: WO 1999/053920; cited from earlier work
# NAPRT = molecular target: T1, NAPRT (Homo sapiens, UniProt Q6XQN6); details: cited from earlier work
# T1 sequence (Q6XQN6 1-538): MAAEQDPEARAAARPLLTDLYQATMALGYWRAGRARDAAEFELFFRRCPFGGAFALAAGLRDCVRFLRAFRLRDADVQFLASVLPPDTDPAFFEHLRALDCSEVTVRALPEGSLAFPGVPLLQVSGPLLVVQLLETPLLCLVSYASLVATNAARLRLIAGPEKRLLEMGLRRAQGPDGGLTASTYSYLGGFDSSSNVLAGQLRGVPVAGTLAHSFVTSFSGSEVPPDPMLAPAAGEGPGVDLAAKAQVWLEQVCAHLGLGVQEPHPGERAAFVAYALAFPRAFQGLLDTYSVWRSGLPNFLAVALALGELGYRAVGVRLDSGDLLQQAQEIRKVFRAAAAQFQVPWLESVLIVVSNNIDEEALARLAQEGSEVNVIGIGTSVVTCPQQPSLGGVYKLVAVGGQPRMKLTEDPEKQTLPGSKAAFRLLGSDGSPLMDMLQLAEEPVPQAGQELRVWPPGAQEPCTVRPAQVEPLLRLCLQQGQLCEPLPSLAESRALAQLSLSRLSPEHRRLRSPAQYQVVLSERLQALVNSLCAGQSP
# [7] = Maximally tolerated dose of APO866 in mice; details: mouse, in vivo, intraperitoneal; twice a day; Balb/c nude mice; data not shown
# PC-3 cells = assay: LD50 of APO866 in PC-3 cells with and without nicotinic acid; type: cell-based
# primary intestinal cells = details: cited from earlier work
# primary lymphocytes = details: cited from earlier work
# [8] = increase of IC50 to APO866 with 100 μM nicotinic acid in medium
# [9] = 60 mg/kg APO866 twice daily on four consecutive days, vehicle p.o. (no nicotinic acid)
smiles,measurement,setting,value
O=C(O)c1cccnc1 [nicotinic acid],effect of nicotinic acid in itself on the survival of the cells,"[1]; 100 μM nicotinic acid added to the medium, data not shown",no effect
same,protection against APO866-induced death,[2]; nicotinic acid administered on the same days as APO866,protects against death even at four times the normal MTD
same,"platelet count upon APO866 treatment, nicotinic acid group compared to control",[3],significantly improved
N#C/N=C(\NCCCCCCC(=O)N(Cc1ccccc1)OC1CCCCC1)Nc1ccncc1 [Compound 1050],rescue by nicotinic acid from treatment,[4],not similarly protected
same,rescue by nicotinic acid from treatment,[5],can rescue
COCCOCCOCCOCCOC(=O)OC[n+]1ccc(N/C(=N/C#N)NCCCCCCOc2ccc(Cl)cc2)cc1.[Cl-] [GMX1777],effect of nicotinic acid on antitumour effect,myeloma,abrogates the antitumour effect
N#CN=C(NCCCCCCOc1ccc(Cl)cc1)Nc1ccncc1 [CHS828],rescue by nicotinic acid from cytotoxicity,[6],minimally rescued
O=C(/C=C/c1cccnc1)NCCCCC1CCN(C(=O)c2ccccc2)CC1 [APO866],"increase of lifespan (% ILS, until tumour size of 800 mm3) compared to the control group","A2780 xenografts; 15 mg/kg APO866 i.p. twice daily, weekly four-day cycles for two weeks",50%
same,anti-proliferative effect with nicotinic acid co-treatment,A2780 xenografts; 15 mg/kg APO866 with 50 mg/kg nicotinic acid,negates the anti-proliferative effect
same,increase in % ILS,A2780 xenografts; 50 mg/kg APO866 i.p. and 50 mg/kg nicotinic acid p.o.,180%
same,body weight between the groups,"A2780 xenografts; during the study, data not shown",did not vary significantly
same,survival compared with controls,"ML-2 xenografts; 15 mg/kg APO866 and nicotinic acid, p=0.14",not significantly different from controls
same,tumour growth compared with untreated controls,"ML-2 xenografts; 50 mg/kg APO866 and nicotinic acid, p=0.002",reduced tumour growth
same,effect on tumour size compared with 15 mg/kg APO866 and nicotinic acid,"ML-2 xenografts; 50 mg/kg APO866 combined with nicotinic acid, p=0.97",does not improve the effect on tumour size in a significant way
same,effect on tumours,ML-2 xenografts; APO866 only,complete elimination of the tumours before day 10
same,body weight change between the groups,ML-2 xenografts; data not shown,No overall differences in body weight change
same,anti-proliferative effect with nicotinic acid co-administered,ML-2 xenografts; same APO866 dose with nicotinic acid,partially negated
same,protection against APO866 in medium containing nicotinic acid,A2780; 100 μM nicotinic acid,not protected
same,NA rescue effect,A2780; [8],− (No rescue effect defined as <2-fold increase in IC50)
same,increase of IC50 values in nicotinic acid containing medium compared to standard medium,HCT-116; 100 μM nicotinic acid,40-90 fold
same,NA rescue effect,HCT-116; [8],+ (Rescue effect defined as >39-fold increase of IC50 to APO866 treatment)
same,increase of IC50 values in nicotinic acid containing medium compared to standard medium,ML-2; 100 μM nicotinic acid,40-90 fold
same,NA rescue effect,ML-2; [8],+ (Rescue effect defined as >39-fold increase of IC50 to APO866 treatment)
same,increase of IC50 values in nicotinic acid containing medium compared to standard medium,A431; 100 μM nicotinic acid,40-90 fold
same,NA rescue effect,A431; [8],+ (Rescue effect defined as >39-fold increase of IC50 to APO866 treatment)
same,protection against APO866 in medium containing nicotinic acid,NYH; 100 μM nicotinic acid,not protected
same,NA rescue effect,NYH; [8],− (No rescue effect defined as <2-fold increase in IC50)
same,effect of vitamin PP compounds on cytotoxicity,leukemic cells,neutralise the cytotoxicity
same,pIC50,"[1]; range over the cell lines of the panel, continuous treatment",7.89 to 9.00
same,survival of mice,"[2]; 60 mg/kg APO866 twice daily on four consecutive days combined with 50 mg/kg/day nicotinic acid p.o., until day 26",all the mice of the group treated with nicotinic acid survived
same,death of mice,[2]; [9],the majority of the control mice died on day 3 and 4
same,mice that survive the initial toxicity and recover,[2]; [9],1 of 7
same,inhibition of the enzyme NAPRT,NAPRT,not inhibited
same,MTD,[7],15 mg/kg
same,LD50,PC-3 cells; with nicotinic acid (100 μM) present,5.5 ± 1.4 nM
same,LD50,PC-3 cells; without nicotinic acid,4.8 ± 3.0 nM
same,effect of vitamin PP compounds on cytotoxic effect,primary intestinal cells,neutralise the cytotoxic effect
same,effect of vitamin PP compounds on cytotoxic effect,primary lymphocytes,neutralise the cytotoxic effect
